Laboratory results taken from US20020193377A1, “Quinazolines as MMP-13 inhibitors” (priority 2001, published 2002).

Biological target: T1, human collagenase-3 catalytic domain enzyme (MMP13) (Homo sapiens, UniProt P45452)
T1 construct: human collagenase-3 catalytic domain enzyme
Experiment: MMP13CD Thiopeptolide Assay
Type: biochemical
Description: MMP13CD Thiopeptolide Assay: Proteolysis of the thiopeptolide substrate Ac-Pro-Leu-Gly-thioester-Leu-Leu-Gly-OEt is used as the primary screen to determine IC50 values for MMP13 inhibitors. A 100 μl reaction contains 50 mM HEPES, 10 mM CaCl2, pH 7.0 (RT), 1 mM 5,5′-dithiobis(2-nitrobenzoic acid) (DTNB), 100 μM substrate, inhibitor in 2.0% DMSO and 2.5 nM human collagenase-3 catalytic domain enzyme. Inhibitors are screened from 100 μM to 0.5 nM. […] Percentage of control velocity in inhibited treatments is plotted against inhibitor concentration to calculate IC50 values.

Row | IC50 [nM] | Structure (SMILES)
1 | 193 | O=C(NCc1cccnc1)c1ccc2[nH]c(=O)n(Cc3ccccc3)c(=O)c2c1 [Example 5, 3-Benzyl-2,4-dioxo-1,2,3,-tetrahydroquinazoline-6-carboxylic acid (3-pyridylmethyl)amide]
2 | 183 | COc1ccc(CNC(=O)c2ccc3[nH]c(=O)n(Cc4ccccc4)c(=O)c3c2)cc1 [Example 6, 3-Benzyl-2,4-dioxo-1,2,3,4-tetrahydroquinazoline-6-carboxylic acid 4-methoxybenzylamide]
3 | 21 | O=C(NCc1ccc(Cl)cc1)c1ccc2[nH]c(=O)n(Cc3ccccc3)c(=O)c2c1 [Example 7, 3-Benzyl-2,4-dioxo-1,2,3,4-tetrahydroquinzaoline-6carboxylic acid 4-chlorobenzylamide]
4 | 1870 | Cc1ccc(CNC(=O)c2ccc3[nH]c(=O)n(Cc4ccccc4)c(=O)c3c2)cc1 [Example 8, 3-Benzyl-2,4-dioxo-1,2,3,4-tetrahydroquinazoline-6-carboxylic acid 4-methylbenzylamide]
5 | 366 | Cn1c(=O)n(Cc2ccccc2)c(=O)c2cc(C(=O)NCc3ccc4c(c3)OCO4)ccc21 [Example 9, 3-Benzyl-1-methyl-2,4-dioxo-1,2,3,4-tetrahydroquinazoline-6-carboxylic acid (benzo[1,3]dioxol-5-ylmethyl)amide]
6 | 49 | Cn1c(=O)n(Cc2ccccc2)c(=O)c2cc(C(=O)NCc3ccccc3)ccc21 [Example 10, 3-Benzyl-1-methyl-2,4-dioxo-1,2,3,4-tetrahydroquinazoline-6carboxylic acid benzylamide]
7 | 167 | COC(=O)c1ccc(CNC(=O)c2ccc3c(c2)c(=O)n(Cc2ccccc2)c(=O)n3C)cc1 [Example 11, Methyl 4-({[1-(3-benzyl-1-methyl-2,4-dioxo-1,2,3,4-tetrahydroquinazolin-6-yl)methanoyl]amino}methyl)benzoate]
8 | 1320 | COc1cc(CNC(=O)c2ccc3c(c2)c(=O)n(Cc2ccccc2)c(=O)n3C)ccc1O [Example 12, 3-Benzy-1-methyl-2,4-dioxo-1,3,3,4-tetrahydroquinazoline-6-carboxylic acid 4-hydroxy-3-methoxybenzylamide]
9 | 5 | COc1ccc(CNC(=O)c2ccc3c(c2)c(=O)n(Cc2ccccc2)c(=O)n3C)cc1 [Example 13, 3-Benzyl-1-methyl-2,4-dioxo-1,2,3,4-tetrahydroquinazoline-6-carboxylic acid 4-methoxybenzylamide]
10 | 57 | Cn1c(=O)n(Cc2ccccc2)c(=O)c2cc(C(=O)NCc3ccncc3)ccc21 [Example 14, 3-Benzyl-1-methyl-2,4-dioxo-1,2,3,4-tetrahydroquinazoline-6-carboxylic acid (4-pyridylmethyl)amide]
11 | 2250 | Cn1c(=O)n(CCc2ccccc2)c(=O)c2cc(C(=O)NCc3ccc4c(c3)OCO4)ccc21 [Example 15, 1-Methyl-2,4-dioxo-3-phenethyl-1,2,3,4-tetrahydroquinazoline-6-carboxylic acid (benzo[1,3]dioxol-5-ylmethyl)amide]
12 | 42 | COc1ccc(Cn2c(=O)[nH]c3ccc(C(=O)NCc4ccc5c(c4)OCO5)cc3c2=O)cc1 [Example 16, 3-(4-Methoxybenzyl)-2,4-dioxo-1,2,3,4-tetrahydroquinazoline-6-carboxylic acid (benzo[1,3]dioxol-5-ylmethyl)amide]
13 | 12 | COc1ccc(Cn2c(=O)c3cc(C(=O)NCc4ccc5c(c4)OCO5)ccc3n(C)c2=O)cc1 [Example 17, 3-(4-Methoxybenzyl)-1-methyl-2,4-dixo-1 3,4-tetrahydroquinazoline-6-carboxylic acid (benzo[1,3]dioxo-5-ylmethyl)amide]
14 | 51 | COc1ccc(CNC(=O)c2ccc3c(c2)c(=O)n(Cc2ccc(OC)cc2)c(=O)n3C)cc1 [Example 18, 3-(4-Methoxybenzyl)-1-methyl-2,4-dioxo-1,2,3,4-tetrahydroquinazoline-6-carboxylic acid 4-methoxybenzylamide]
15 | 15 | O=C(NCc1ccc2c(c1)OCO2)c1ccc2[nH]c(=O)n(Cc3ccncc3)c(=O)c2c1 [Example 20, 2,4-Dioxo-3-(pyrid-4-ylmethyl)-1,2,3,4-tetrahydroquinazoline-6-carboxylic acid (benzo[1,3]dioxol-5ylmethyl)amide]
16 | 9 | O=C(NCc1ccccc1)c1ccc2[nH]c(=O)n(Cc3cccs3)c(=O)c2c1 [Example 21, 2,4-Dioxo3-(thien-2-ylmethyl)-1,2,3,4-tetrahydroquinazoline-6-carboxylic acid benzylamide]
17 | 51 | Cn1c(=O)n(Cc2cccs2)c(=O)c2cc(C(=O)NCc3ccc4c(c3)OCO4)ccc21 [Example 24, 1-Methyl-2,4-dioxo-3-(thien-2-ylmethyl)-1,2,4,4-tetrahydroquinazoline-6-carboxylic acid (benzo[1,3]dioxol-5-ylmethyl)amide]

Row | IC50 [nM] | Structure (SMILES)
18 | 300 | O=C(NCc1ccc2c(c1)OCO2)c1ccc2[nH]c(=O)n(Cc3ccc(Cl)cc3)c(=O)c2c1 [Example 25, 3-(4-Chlorobenzyl)-2,4-dioxo-1,2,3,4-tetrahydroquinazoline-6-carboxylic acid (benzo[1,3]dioxol-5-ylmethyl)amide]
19 | 96 | Cn1c(=O)n(Cc2ccc(Cl)cc2)c(=O)c2cc(C(=O)NCc3ccc4c(c3)OCO4)ccc21 [Example 26, 3-(4Chlorobenzyl)-1-methyl-2,4-dioxo-1,2,3,4-tetrahydroquinazoline-6-carboxylic acid (benzo[1,3]dioxol-5-ylmethyl)amide]
20 | 29 | Cn1c(=O)c2cc(C(=O)NCc3ccc4c(c3)OCO4)ccc2n(C)c1=O [Example 27, 1,3-Dimethyl-2,4-dioxo-1,2,3,4-tetrahydroquinazoline-6-carboxylic acid (benzo[1,3]dioxol-5-ylmethyl)amide]
21 | 28 | Cn1c(=O)n(Cc2ccc3c(c2)OCO3)c(=O)c2cc(C(=O)NCc3ccc4c(c3)OCO4)ccc21 [Example 29, 3-(Benzo[1,3]dioxol-5-ylmethyl)-1-methyl-2,4-dioxo-1,2,3,4-tetrahydroquinazoline-6carboxylic acid (benzo[1,3]dioxol-5-ylmethyl)amide]
22 | 9 | CCn1c(=O)n(Cc2ccccc2)c(=O)c2cc(C(=O)NCc3ccc4c(c3)OCO4)ccc21 [Example 30, 3-Benzyl-1-ethyl-2,4-dioxo-1,2,3,4-tetraquinazoline-6-carboxylic acid (benzo[1,3]dioxol-5-ylmethyl)amide]
23 | 1700 | O=C(NCc1ccc2c(c1)OCO2)c1ccc2c(c1)c(=O)n(Cc1ccccc1)c(=O)n2CC1CC1 [Example 31, 3-Benzyl-1-cyclopropylmethyl-2,4-dioxo-1,2,3,4-tetrahydroquinazoline-6-carboxylic acid (benzo[1,3]dioxol-5-ylmethy)amide]
24 | 17 | CC(C)Cn1c(=O)n(Cc2ccccc2)c(=O)c2cc(C(=O)NCc3ccc4c(c3)OCO4)ccc21 [Example 32, 3-Benzyl-1-isobutyl-2,4-dioxo-1,2,3,4-tetrahydroquinazoline-6-carboxylic acid (benzo[1,3]dioxol-5-ylmethyl)amide]
25 | 3 | Cn1c(=O)[nH]c(=O)c2cc(C(=O)NCc3ccc4c(c3)OCO4)ccc21 [Example 33, 1-Methyl-2,4-dioxo-1,2,3,4-tetrahydrquinazoline-6-carboxylic acid (benzo[1,3]-dioxol-5-ylmethyl)amide]
26 | 26 | COC(=O)c1ccc(Cn2c(=O)c3cc(C(=O)NCc4ccc(OC)cc4)ccc3n(C)c2=O)cc1 [Example 34, Methyl 4-[6-(4-methoxy-benzylcarbamoyl)-1-methyl-2,4-dioxo-1,4-dihydro-2H-quinazolin-3-ylmethyl]-benzoate]
27 | 600 | Cn1c(=O)n(C/C=C/c2ccccc2)c(=O)c2cc(C(=O)NCc3ccc4c(c3)OCO4)ccc21 [Example 36, 1-Methyl-2,4-dioxo-3-((E)-3phenylally)-1,2,3,4-tetrahydroquinazoline-6-carboxylic acid (benzo[1,3]dioxol-5-ylmethyl)amide]
28 | 750 | O=C(OCc1ccccc1)c1ccc2[nH]c(=O)n(Cc3ccccc3)c(=O)c2c1 [Example 37, Benzyl 3-benzyl-2,4-dioxo-1,2,3,4-tetrahydroquinazolne-6-carboxylate]
29 | 1 | O=C(OCc1ccncc1)c1ccc2[nH]c(=O)n(Cc3ccccc3)c(=O)c2c1 [Example 39, 4-Pyridylmethyl 3-benzyl-2,4-dioxo-1,2,3,4-tetrahydroqinazoline-6-carboxylate]
30 | 28 | Cn1c(=O)n(Cc2ccccc2)c(=O)c2cc(C(=O)OCc3ccncc3)ccc21 [Example 40, 4-Pyridylmethyl 3-benzyl-1-methyl-2,4-dioxo-1,3,3,4-tetrahydroquinazoline-6-carboxylate]
31 | 29 | O=C(OCc1ccc2c(c1)OCO2)c1ccc2[nH]c(=O)n(Cc3ccccc3)c(=O)c2c1 [Example 41, Benzo[1,3]dioxol-5-ylmethyl3-benzyl-2,4-dioxo-1,2,3,4-tetrahydroquinazoline-6-carboxylate]
32 | 31 | Cn1c(=O)n(Cc2ccccc2)c(=O)c2cc(C(=O)OCc3ccc4c(c3)OCO4)ccc21 [Example 42, Benzo[1,3]dioxol-5-ylmethyl3-benzyl-1-methyl-2,4-dioxo-1,2,3,4-tetrahydroquinazoline-6-carboxylate]
33 | 11 | O=C(OCc1ccccc1)c1ccc2c(c1)c(=O)n(Cc1ccncc1)c(=O)n2Cc1ccccc1 [Example 43, Benzyl 1-benzyl-2,4-dioxo-3-pyrid-4-ylmethyl-1,2,3,4-tetrahydroquinazoline-6carboxylate]
34 | 4 | O=C(OCc1ccncc1)c1ccc2[nH]c(=O)n(Cc3cccs3)c(=O)c2c1 [Example 44, 4-Pyridylmethyl 2,4-dioxo-3-(thien-2-ylmethyl)-1,2,3,4-tetrahydroquinazoline-6-carboxylate]
